Assay results taken from patent US6358885B1, “Substituted phenylheterocyclic herbicides” (Mississippi State University, priority 1992, dated 2002).

Legend:
[1] = test system: cheatgrass; experiment: Test B preemergence/postemergence greenhouse plant response rating 0 to 10; assay type: in vivo, Bromus secalinus; conditions: 0 to 10 scale
Procedure, shortened: (§1)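 Planted seeds are treated preemergence with compound dissolved in a non-phytotoxic solvent, while postemergence applications go onto plants of two to eighteen cm. Plants stay in the greenhouse twelve to sixteen days and are then rated visually relative to controls.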

[2] = test system: corn; experiment: as above; assay type: in vivo, Zea mays; conditions: 0 to 10 scale
Procedure, shortened: as §1

[3] = test system: giant foxtail; experiment: as above; assay type: in vivo, Setaria faberii; conditions: 0 to 10 scale
Procedure, shortened: as §1

[4] = test system: sorghum; experiment: as above; assay type: in vivo, Sorghum bicolor; conditions: 0 to 10 scale
Procedure, shortened: as §1

[5] = test system: wild buckwheat; experiment: as above; assay type: in vivo, Polygonum convolvulus; conditions: 0 to 10 scale
Procedure, shortened: as §1

[6] = test system: wild oat; experiment: as above; assay type: in vivo, Avena fatua; conditions: 0 to 10 scale
Procedure, shortened: as §1

[7] = test system: barley; experiment: Test C preemergence/postemergence greenhouse plant response rating 0 to 100; assay type: in vivo, Hordeum vulgare; conditions: POSTEMERGENCE; for Plant response rating Barley Igri: 0 to 100 scale
Text: (§2) The compounds evaluated in this test were formulated in a non-phytoxic solvent and applied to the soil surface before plant seedlings emerged (preemergence application), to water that covered the soil surface (flood application), and to plants that were in the one-to-four leaf stage (postemergence application). A sandy loam soil was used for the preemergence and postemergence tests, while a silt loam soil was used in the flood test. Water depth was approximately 2.5 cm for the flood test and was maintained at this level for the duration of the test. Plant species in the preemergence and postemergence tests consisted of barley (Hordeum vulgare), bedstraw (Galium aparine), blackgrass (Alopecurus myosuroides), chickweed (Stellaria media), corn (Zea mays), cotton (Gossypium hirsutum), crabgrass (Digitaria sanguinalis), downy brome (Bromus tectorum), giant foxtail (Setaria faberii), lambsquarters (Chenopodium album), morningglory (Ipomoea hederacea), pigweed ([…]), rape (Brassica napus), ryegrass (Lolium multiflorum), sorghum (Sorghum bicolor), soybean (Glycine max), speedwell (Veronica persica), sugar beet (Beta vulgaris), velvetleaf (Abutilon theophrasti), wheat (Triticum aestivum), wild buckwheat (Polygonum convolvulus), and wild oat (Avena fatua). All plant species were planted one day before application of the compound for the preemergence portion-of this test. Plantings of these species were adjusted to produce plants of appropriate size for the post-emergence portion of the test. […] All plant species were grown using normal greenhouse practices. Visual evaluations of injury expressed on treated plants, when compared to untreated controls, were recorded approximately fourteen to twenty one days after application of the test compound. […] A dash (-) response means no test result.

[8] = test system: chickweed; experiment: as above; assay type: in vivo, Stellaria media; conditions: POSTEMERGENCE; for Plant response rating, Chickweed: 0 to 100 scale
Text: as §2

[9] = test system: cotton; experiment: as above; assay type: in vivo, Gossypium hirsutum; conditions: POSTEMERGENCE; for Plant response rating, Cotton: 0 to 100 scale
Text: as §2

[10] = test system: downy brome; experiment: as above; assay type: in vivo, Bromus tectorum; conditions: POSTEMERGENCE; for Plant response rating Downy Brome: 0 to 100 scale
Text: as §2

[11] = test system: lambsquarters; experiment: as above; assay type: in vivo, Chenopodium album; conditions: POSTEMERGENCE; for Plant response rating Lambsquarters: 0 to 100 scale
Text: as §2

[12] = test system: ryegrass; experiment: as above; assay type: in vivo, Lolium multiflorum; conditions: POSTEMERGENCE; for Plant response rating Ryegrass: 0 to 100 scale
Text: as §2

[13] = test system: soybean; experiment: as above; assay type: in vivo, Glycine max; conditions: POSTEMERGENCE; for Plant response rating, Soybean: 0 to 100 scale
Text: as §2

[14] = test system: sugar beet; experiment: as above; assay type: in vivo, Beta vulgaris; conditions: POSTEMERGENCE; for Plant response rating, Sugar beet: 0 to 100 scale
Text: as §2

[15] = test system: velvetleaf; experiment: as above; assay type: in vivo, Abutilon theophrasti; conditions: POSTEMERGENCE; for Plant response rating, Velvetleaf: 0 to 100 scale
Text: as §2

[16] = test system: wild buckwheat; experiment: as above; assay type: in vivo, Polygonum convolvulus; conditions: POSTEMERGENCE; for Plant response rating, Wild buckwheat: 0 to 100 scale
Text: as §2

[17] = test system: duck salad; experiment: Test C flood test plant response rating 0 to 100; assay type: in vivo, Heteranthera limosa; conditions: for Plant response rating (0 to 100), Duck salad: under POSTEMERGENCE head (flood test species); for Plant response rating Duck salad: flood test species listed under POSTEMERGENCE, 0 to 100 scale
Text: as §2

## C#CC(C)Oc1cc(-c2nn3c(c2Cl)CCCC3)c(F)cc1Cl (stereo not shown) [Compound 36]
[1]; POSTEMERGENCE, Rate 50 g/ha
  Plant response rating, Cheatgrass: 5
[1]; POSTEMERGENCE, Rate 200 g/ha
  Plant response rating, Cheatgrass: 7
[1]; PREEMERGENCE, Rate 50 g/ha
  Plant response rating, Cheatgrass: 4
[1]; Rate 200 g/ha, PREEMERGENCE
  Plant response rating, Cheatgrass: 6
[2]; POSTEMERGENCE, Rate 50 g/ha
  Plant response rating, Corn: 5
[2]; POSTEMERGENCE, Rate 200 g/ha
  Plant response rating, Corn: 6
[2]; PREEMERGENCE, Rate 50 g/ha
  Plant response rating, Corn: 0
[2]; Rate 200 g/ha, PREEMERGENCE
  Plant response rating, Corn: 4
[3]; POSTEMERGENCE, Rate 50 g/ha
  Plant response rating, Giant foxtail: 6
[3]; PREEMERGENCE, Rate 50 g/ha
  Plant response rating, Giant foxtail: 5
[3]; Rate 200 g/ha, POSTEMERGENCE
  Plant response rating, Giant foxtail: 7
[3]; Rate 200 g/ha, PREEMERGENCE
  Plant response rating, Giant foxtail: 9
[4]; POSTEMERGENCE, Rate 50 g/ha
  Plant response rating, Sorghum: 5
[4]; PREEMERGENCE, Rate 50 g/ha
  Plant response rating, Sorghum: 0
[4]; Rate 200 g/ha, POSTEMERGENCE
  Plant response rating, Sorghum: 6
[4]; Rate 200 g/ha, PREEMERGENCE
  Plant response rating, Sorghum: 1
[5]; POSTEMERGENCE, Rate 50 g/ha
  Plant response rating, Wild buckwheat: 10
[5]; PREEMERGENCE, Rate 50 g/ha
  Plant response rating, Wild buckwheat: 10
[5]; Rate 200 g/ha, POSTEMERGENCE
  Plant response rating, Wild buckwheat: 10
[5]; Rate 200 g/ha, PREEMERGENCE
  Plant response rating, Wild buckwheat: 10
[6]; POSTEMERGENCE, Rate 50 g/ha
  Plant response rating, Wild oat: 5
[6]; PREEMERGENCE, Rate 50 g/ha
  Plant response rating, Wild oat: 3
[6]; Rate 200 g/ha, POSTEMERGENCE
  Plant response rating, Wild oat: 6
[7]; 62 g/ha
  Plant response rating Barley Igri: 30
[7]; 125 g/ha
  Plant response rating Barley Igri: 50
[7]; Rate 16 g/ha
  Plant response rating (0 to 100), Barley Igri: 20
[7]; Rate 31 g/ha
  Plant response rating (0 to 100), Barley Igri: 30
[8]; 62 g/ha
  Plant response rating, Chickweed: 80
[8]; 125 g/ha
  Plant response rating, Chickweed: 100
[8]; Rate 16 g/ha
  Plant response rating (0 to 100), Chickweed: 70
[8]; Rate 31 g/ha
  Plant response rating (0 to 100), Chickweed: 80
[9]; 62 g/ha
  Plant response rating, Cotton: 100
[9]; 125 g/ha
  Plant response rating, Cotton: 100
[9]; Rate 16 g/ha
  Plant response rating (0 to 100), Cotton: 100
[9]; Rate 31 g/ha
  Plant response rating (0 to 100), Cotton: 100
[10]; 62 g/ha
  Plant response rating Downy Brome: 40
[10]; 125 g/ha
  Plant response rating Downy Brome: 50
[10]; Rate 16 g/ha
  Plant response rating (0 to 100), Downy Brome: 20
[10]; Rate 31 g/ha
  Plant response rating (0 to 100), Downy Brome: 30
[11]; 62 g/ha
  Plant response rating Lambsquarters: 100
[11]; 125 g/ha
  Plant response rating Lambsquarters: 100
[11]; Rate 16 g/ha
  Plant response rating (0 to 100), Lambsquarters: 90
[11]; Rate 31 g/ha
  Plant response rating (0 to 100), Lambsquarters: 95
[12]; 62 g/ha
  Plant response rating Ryegrass: 30
[12]; 125 g/ha
  Plant response rating Ryegrass: 50
[12]; Rate 16 g/ha
  Plant response rating (0 to 100), Ryegrass: 20
[12]; Rate 31 g/ha
  Plant response rating (0 to 100), Ryegrass: 30
[13]; 62 g/ha
  Plant response rating, Soybean: 80
[13]; 125 g/ha
  Plant response rating, Soybean: 100
[13]; Rate 16 g/ha
  Plant response rating (0 to 100), Soybean: 50
[13]; Rate 31 g/ha
  Plant response rating (0 to 100), Soybean: 50
[14]; 62 g/ha
  Plant response rating, Sugar beet: 100
[14]; 125 g/ha
  Plant response rating, Sugar beet: 100
[14]; Rate 16 g/ha
  Plant response rating (0 to 100), Sugar beet: 95
[14]; Rate 31 g/ha
  Plant response rating (0 to 100), Sugar beet: 100
[15]; 62 g/ha
  Plant response rating, Velvetleaf: 100
[15]; 125 g/ha
  Plant response rating, Velvetleaf: 100
[15]; Rate 16 g/ha
  Plant response rating (0 to 100), Velvetleaf: 100
[15]; Rate 31 g/ha
  Plant response rating (0 to 100), Velvetleaf: 100
[16]; 62 g/ha
  Plant response rating, Wild buckwheat: 100
[16]; 125 g/ha
  Plant response rating, Wild buckwheat: 100
[16]; Rate 16 g/ha
  Plant response rating (0 to 100), Wild buckwheat: 70
[16]; Rate 31 g/ha
  Plant response rating (0 to 100), Wild buckwheat: 70
[17]; Rate 16 g/ha
  Plant response rating (0 to 100), Duck salad: 0
[17]; Rate 31 g/ha
  Plant response rating (0 to 100), Duck salad: 0
[17]; 62 g/ha
  Plant response rating Duck salad: 30
[17]; 125 g/ha
  Plant response rating Duck salad: 50
